Read-outs that look alike come from different tables or passages of the source.
Tests used:
[1] = dog, in vivo
human CAIX = human CAIX (Homo sapiens, UniProt Q16790); assay: Radioligand saturation binding and equilibration on CHO-huCAIX; parameters: host or cells: CHO-VGT / CHO cells
Procedure: (§1) After attainment of equilibrium, the cells were harvested, and the bound fraction of the compounds was measured. The resulting saturation binding data were analyzed using Graph Pad Prism 8.3.
(§2) CHO cells transfected with human, dog, and mouse CAIX (CHO-huCA9 T04J-1/20 K1, CHO-dogCA9 T05J-9/20 K4, CHO-murCA9 T05J-3/20 K4) were obtained from InSCREENex (Germany).
(§3) A molar excess of 3BP-3565 was used as a blocking peptide to assess non-specific binding in autoradiographic studies. 3BP-3565 binds with a similar affinity to CAIX and blocks binding sites of test compounds. For the blocking solution, a 10 mM stock solution of 3BP-3565 was prepared by dissolution in DMSO.
(§4) CHO cells were maintained in Ham's medium supplemented with 10% fetal bovine serum, 2 mM L-glutamine, 100 U/mL Penicillin and 0.1 mg/mL streptomycin under standard cell culture conditions. The cells were grown in uncoated cell culture flasks (150 cm^2, Biochrom) to subconfluence and then split 1:2-1:3. Approximately 24 hours before the assay, cells were detached by incubation with Accutase and carefully tapping the flasks. Detached cells were resuspended in medium and collected by centrifugation (300 g, 5 min, RT). Cell pellets were resuspended in cell culture medium and counted using a particle counter (CASY Model TT, Scharfe Systems, Germany). Cell concentrations were adjusted to 3×10^5 mL^−1, and 1.000 μL per well of the suspension were dispensed into poly-D-lysine-coated flat-clear-bottom 24 well plates.
(§5) Compound radiolabeling was performed as follows. […] Then, 25 mg/mL methionine in 1 M sodium acetate buffer pH 5 was added at a final concentration of 0.1 M sodium acetate. Subsequently, the mixture was heated to 80° C. for 25 min, followed by cooling for 5 minutes. Finally, 20 μL of 200 mg/mL ascorbic acid solution, 2.5 μL of 5 mg/mL DTPA and 2.5 μL of 5% TWEEN-20 per 100 μL reaction mixture were added, resulting in the concentrated study solution. For quality control, an aliquot of the labeling solution was diluted 1:40 with 0.1% TWEEN-20 in 0.1 M sodium acetate buffer pH 5. Five microliters of the diluted labeling solution were injected onto a Poroshell SB-C18 2.1×50 mm, 2.7 μm column. HPLC analysis was performed as follows: Gradient A: H2O, 0.1% TFA, Gradient B: Acetonitrile (MeCN), gradient from 5% B to 70% B within 15 min, flow rate of 0.5 mL/min; detector: NaI, DAD 215 nm. The peak eluting with the dead volume represents free radionuclide, the peak eluting with the ligand-specific retention time as determined with a non-labeled sample represents the radiolabeled compound.
The assessment of the time needed until attainment of equilibration on CHO-huCAIX and CHO-dgCAIX was performed as follows. The 10 mM 3BP-3565 stock solution was diluted with assay medium (Ham's medium without additives) to prepare an 8-μM blocking working solution. The radiolabeling mixtures were diluted with assay medium to prepare 160 nM radioligand working solutions. Subsequently, 1.6 and 3.2 nM radioligand dilutions were prepared by diluting the radioligand working solutions 1:100 and 1:50, respectively, with assay medium. Approximately 24 hours after re-seeding (3×10^5 mL^−1 cells per well), the medium was aspirated, and the cells were washed once with assay medium (700 μL). To determine total binding, 700 μL of binding medium and 100 μL of the radioligand dilutions were added to the wells in triplicates.
To determine non-specific binding, 600 μL of binding medium, 100 μL of the […] 3BP-3565 blocking solution and 100 μL of the radioligand dilutions were added to the wells in triplicates. The plates were incubated for 1 h, 3 h, 6 h, and 8 h at 37° C. under standard cell culture conditions (5% CO2). At the end of the incubation time, the plates were placed on ice while aspirating the radioligand solutions. Subsequently, the cells were washed with ice-cold PBS (0.5 mL, 1 mL, 1 mL). […]

mouse CAIX = molecular target: T1, mouse CAIX (Mus musculus, UniProt Q8VHB5); assay: Radioligand saturation binding on CHO-msCAIX; conditions: CHO-msCAIX, single experiment
T1 construct: host or cells: CHO-VGT / CHO cells
T1 sequence (Q8VHB5 32-437): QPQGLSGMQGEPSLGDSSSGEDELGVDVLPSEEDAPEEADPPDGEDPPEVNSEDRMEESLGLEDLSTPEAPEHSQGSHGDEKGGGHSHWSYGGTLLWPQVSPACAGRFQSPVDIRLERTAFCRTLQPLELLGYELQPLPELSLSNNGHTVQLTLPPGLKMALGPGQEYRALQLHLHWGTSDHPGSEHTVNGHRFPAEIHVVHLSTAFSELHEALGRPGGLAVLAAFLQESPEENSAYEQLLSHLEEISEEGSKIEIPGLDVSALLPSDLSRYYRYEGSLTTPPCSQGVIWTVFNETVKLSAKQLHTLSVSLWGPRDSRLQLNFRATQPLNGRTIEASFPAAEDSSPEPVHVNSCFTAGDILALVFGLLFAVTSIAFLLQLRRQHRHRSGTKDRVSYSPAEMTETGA
Procedure: as §1, §2, §3, §4, §5
The radioligand saturation binding on CHO-msCAIX was determined as follows. […] Their associated radioactivity was counted using a gamma counter and normalized to the measured protein concentration of each well. […]

[2] = Biodistribution study (SPECT/CT) in SK-RC-52 tumor-bearing mice with or without gelofusine; assay type: in vivo, NMRI nude mice; conditions: female, NMRI nude, mouse, in vivo, iv, total radioactivity, peak tumor uptake, typical (conclusion)
Procedure: The effect on tumor uptake of prior injection of gelofusine for kidney protection was investigated in mice bearing the SK-RC-52 tumor. Biodistribution was evaluated using in vivo SPECT/CT imaging. Prior to the in vivo study the compounds (ligands) were initially radiolabeled with In-111 and the stability of radiolabeled compounds was evaluated in buffer at three different timepoints.
The study was performed in female NMRI nude mice (approximately 6 weeks of age) from Janvier Labs, France, housed up to 5 mice per cage.
The column was washed with 2 mL water, and then the final product was eluted from the column in EtOH solution (50%) • The sample was formulated in PBS to the final concentration of 150 MBq/mL and 5 nmol/mL.
SK-RC-52 cells were cultured in RPMI 1640 with GlutaMax-I (Thermo Fisher Scientific #61870044) supplemented with 10% fetal bovine serum+1% penicillin/streptomycin, harvested, washed twice in RPMI 1640 and resuspended at 2×10^7 cells/mL in RPMI 1640. HT-29 cells were cultured in McCoy's 5a Medium Modified (Sigma #M9309). For inoculation of HT-29 cells, cells were harvested, washed twice in PBS and resuspended at 5×10^7 cells/mL in PBS. Cells were kept on ice until inoculation.
Animals were anaesthetized (isoflurane, 2-4% in ambient air supplemented with 100% 02) prior to tumor inoculation. The tumor cells (100 μL suspension of either SK-RC-52 cells (2×10^6 cells/animal) or HT-29 cells (5×10^6 cells/animal)) were subcutaneously inoculated in the right flank using a 1-mL syringe equipped with a 27 G needle. Tumor growth and animal weight were measured twice per week. Tumor size was measured by caliper and the volume was estimated using the following formula: 0.52×(length×width^2). When tumor sizes reached 150-250 mm^3, animals were randomized into groups (n=3) of similar average tumor volume and body weight.
Animals were injected intravenously with In-111-labeled compounds (single bolus, 22.3-31.2 MBq, ˜1 nmol ligand, injection volume: 100 μL) in the lateral tail vein using a 29 G syringe.
CT was performed with helical scan, 300 ms exposure, reconstruction resolution of 250 μm. SPECT was performed with multi-pinhole scan and a 30 s frame time. For the quantification of the radioactivity uptake, regions of interests (ROIs) were drawn over the tumor, kidney, liver, and heart (estimate of blood) identified on the images. Uptake was expressed as percent of injected dose per gram tissue (% ID/g).

[3] = Plasma stability assay, human plasma; conditions: 37°C
[4] = Plasma stability assay, mouse plasma; conditions: mouse plasma, 37°C, 24 h
[5] = In vivo efficacy, biodistribution and tolerability of 225Ac-DPI-4452 in HT-29 xenograft mouse model; parameters: species or system NMRI nude mice; conditions: female, NMRI nude, mouse, iv, total radioactivity, HT-29 model, 15 kBq, 4 hours after dosing
[6] = test system: HT-29 (CRC) human cancer cell line xenograft; assay: as above; parameters: species or system NMRI nude mice; conditions: HT-29 model
[7] = In vivo efficacy, biodistribution and tolerability of 225Ac-DPI-4452 in SK-RC-52 xenograft mouse model; parameters: species or system NMRI nude mice; conditions: female, NMRI nude, mouse, iv, total radioactivity, SK-RC-52 model, 15 kBq, 4 hours after dosing
[8] = test system: SK-RC-52 (ccRCC) human cancer cell line xenograft; assay: as above; parameters: species or system NMRI nude mice; conditions: SK-RC-52 model
[9] = colon, small intestine and stomach
[10] = kidney, read-out: kidney uptake

## CC(C)C[C@@H]1NC(=O)[C@H](Cc2ccc(NC(=O)CCS(N)(=O)=O)cc2)NC(=O)[C@H](CC(=O)O)NC(=O)[C@H]2CCCN2C(=O)[C@H](CCC(=O)O)NC(=O)[C@@H](NC(=O)[C@H](CCC(N)=O)NC(=O)CN2CCN(CC(=O)O)CCN(CC(=O)O)CCN(CC(=O)O)CC2)CSCc2cccc(c2)CSC[C@@H](C(N)=O)NC(=O)[C@H](CO)NC(=O)[C@H](Cc2c[nH]c3ccccc23)NC(=O)[C@H]([C@@H](C)O)NC1=O [[^111In]In-DPI-4501, metal not drawn]
[1]
  half-life: 68.9 min
[1]; iv
  half-life: 5.88 min
Human CAIX; CHO-huCAIX
  koff: 0.00012 s⁻¹
Human CAIX; CHO-huCAIX, first independent experiment, read-out: pKd (converted)
  Kd: 0.158 nM
Human CAIX; CHO-huCAIX, read-out: Mean pKd ± SD (converted)
  Kd: 0.251 nM
Human CAIX; CHO-huCAIX, second independent experiment, read-out: pKd (converted)
  Kd: 0.398 nM
Human CAIX; human CAIX expressed in CHO cells, 8 h at 37°C, read-out: pKd (converted)
  Kd: ≤ 1 nM
Mouse CAIX
  Mean pKd ± SD: 7.9
Mouse CAIX; read-out: pKd (converted)
  Kd: 12.6 nM
[2]
  tissue uptake: 7 %ID/g

## CC(C)C[C@@H]1NC(=O)[C@H](Cc2cccc(NC(=O)CCCS(N)(=O)=O)c2)NC(=O)[C@H](CC(=O)O)NC(=O)[C@H]2CCCN2C(=O)[C@H](CCC(=O)O)NC(=O)[C@@H](NC(=O)[C@H](CCC(N)=O)NC(=O)CN2CCN(C(=O)CN3CCN(CC(=O)O)CCN(CC(=O)O)CCN(CC(=O)O)CC3)CC2)CSCc2cccc(c2)CSC[C@@H](C(N)=O)NC(=O)[C@H](CO)NC(=O)[C@H](Cc2c[nH]c3ccccc23)NC(=O)[C@H]([C@@H](C)O)NC1=O (natLu complex, metal not drawn) [3BP-4555]
[3]
  % intact compound remaining after 24 h incubation: >95%
[4]
  % intact compound remaining (incubation time): >95%

## CC(C)C[C@@H]1NC(=O)[C@H](Cc2cccc(NC(=O)CCCS(N)(=O)=O)c2)NC(=O)[C@H](CC(=O)O)NC(=O)[C@H]2CCCN2C(=O)[C@H](CCC(=O)O)NC(=O)[C@@H](NC(=O)[C@H](CCC(N)=O)NC(=O)CN2CCN(C(=O)CN3CCN(CC(=O)O)CCN(CC(=O)O)CCN(CC(=O)O)CC3)CC2)CSCc2cccc(c2)CSC[C@@H](C(N)=O)NC(=O)[C@H](CO)NC(=O)[C@H](Cc2c[nH]c3ccccc23)NC(=O)[C@H]([C@@H](C)O)NC1=O [^225Ac-DPI-4452, metal not drawn]
[5]; HT-29 tumor, ex vivo gamma counter, read-out: tumor uptake
  tissue uptake at 4 h: 11.3 ± 1.3 %ID/g
[5]; [9]
  tissue uptake at 4 h: < 1.1 %ID/g
[5]; [10]
  tissue uptake at 4 h: 7.9 ± 1.3 %ID/g
[6]; 135 kBq, day 14
  creatinine values versus vehicle: slightly elevated
[6]; single 15, 45 or 135 kBq i.v.
  tolerability of treatment: well tolerated
[7]; SK-RC-52 tumor, ex vivo gamma counter, read-out: tumor uptake
  tissue uptake at 4 h: 39.1 ± 1.6 %ID/g
[7]; [9]
  tissue uptake at 4 h: < 1.1 %ID/g
[7]; [10]
  tissue uptake at 4 h: 4.9 ± 0.2 %ID/g
[8]; 135 kBq, day 14
  creatinine values versus vehicle: slightly elevated
[8]; single 15, 45 or 135 kBq i.v.
  tolerability of treatment: well tolerated

Source: patent US20250339569A1, “CARBONIC ANHYDRASE IX LIGANDS” (priority 2021, published 2025)
